Measured values from ChEMBL document CHEMBL6182925 (J Med Chem, 2025).
In brackets after ≈: the same amount, converted by molar mass. Several values for one entry are separate records, joined by “and”; a condition that tells them apart may be missing. Equal entries are not always repeated. Activity calls are given as the source filed them. The calls are words filed in the database; no cut-off is given here.

Legend:
hERG = hERG (Homo sapiens, UniProt Q12809); assay: Inhibition of hERG at 10 uM by CEREP analysis relative to control; assay type: toxicity
hERG, sequence (Q12809 whole entry): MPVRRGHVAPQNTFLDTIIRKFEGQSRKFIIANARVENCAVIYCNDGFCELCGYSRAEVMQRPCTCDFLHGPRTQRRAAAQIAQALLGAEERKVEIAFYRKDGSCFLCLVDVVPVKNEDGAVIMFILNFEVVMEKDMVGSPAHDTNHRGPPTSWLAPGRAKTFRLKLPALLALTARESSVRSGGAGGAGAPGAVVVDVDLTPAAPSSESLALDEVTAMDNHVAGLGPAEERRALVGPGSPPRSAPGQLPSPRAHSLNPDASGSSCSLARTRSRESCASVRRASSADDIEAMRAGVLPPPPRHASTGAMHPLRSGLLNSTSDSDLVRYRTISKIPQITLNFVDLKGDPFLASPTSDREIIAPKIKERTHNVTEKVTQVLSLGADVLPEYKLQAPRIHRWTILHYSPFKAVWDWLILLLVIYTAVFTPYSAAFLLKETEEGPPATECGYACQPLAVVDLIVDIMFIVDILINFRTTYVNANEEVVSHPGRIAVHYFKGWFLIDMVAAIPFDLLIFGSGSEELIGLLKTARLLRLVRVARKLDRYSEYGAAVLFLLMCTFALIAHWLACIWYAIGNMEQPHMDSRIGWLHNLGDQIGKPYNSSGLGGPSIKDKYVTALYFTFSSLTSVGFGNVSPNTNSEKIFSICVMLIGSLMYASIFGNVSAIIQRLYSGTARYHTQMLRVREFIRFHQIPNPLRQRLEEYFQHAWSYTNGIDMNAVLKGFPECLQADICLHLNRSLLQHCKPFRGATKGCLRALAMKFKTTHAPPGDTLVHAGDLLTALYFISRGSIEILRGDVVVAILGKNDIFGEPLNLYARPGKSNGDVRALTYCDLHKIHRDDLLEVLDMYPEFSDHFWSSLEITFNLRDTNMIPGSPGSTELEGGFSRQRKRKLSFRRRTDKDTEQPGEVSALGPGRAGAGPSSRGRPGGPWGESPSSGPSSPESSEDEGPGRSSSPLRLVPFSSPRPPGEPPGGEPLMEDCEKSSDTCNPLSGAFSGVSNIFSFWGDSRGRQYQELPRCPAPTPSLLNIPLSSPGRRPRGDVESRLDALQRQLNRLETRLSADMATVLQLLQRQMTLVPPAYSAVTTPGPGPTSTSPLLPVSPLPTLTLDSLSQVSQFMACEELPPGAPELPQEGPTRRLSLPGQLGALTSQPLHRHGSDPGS

BaF3 [1] = assay: cells; conditions: Mus musculus, BaF3, 72 h
BaF3 [2] = tested on: BaF3
[3] = tested on: Hepatocyte growth factor receptor (Homo sapiens), P08581 [Y1235D]; assay: Inhibition of c-MET Y1235D mutant (unknown origin) at 100 nM in presence of ATP by HotSpot Kinome Selectivity analysis
Hepatocyte growth factor receptor (Homo sapiens), P08581 [Y1235D], sequence (P08581 whole entry Y1235D): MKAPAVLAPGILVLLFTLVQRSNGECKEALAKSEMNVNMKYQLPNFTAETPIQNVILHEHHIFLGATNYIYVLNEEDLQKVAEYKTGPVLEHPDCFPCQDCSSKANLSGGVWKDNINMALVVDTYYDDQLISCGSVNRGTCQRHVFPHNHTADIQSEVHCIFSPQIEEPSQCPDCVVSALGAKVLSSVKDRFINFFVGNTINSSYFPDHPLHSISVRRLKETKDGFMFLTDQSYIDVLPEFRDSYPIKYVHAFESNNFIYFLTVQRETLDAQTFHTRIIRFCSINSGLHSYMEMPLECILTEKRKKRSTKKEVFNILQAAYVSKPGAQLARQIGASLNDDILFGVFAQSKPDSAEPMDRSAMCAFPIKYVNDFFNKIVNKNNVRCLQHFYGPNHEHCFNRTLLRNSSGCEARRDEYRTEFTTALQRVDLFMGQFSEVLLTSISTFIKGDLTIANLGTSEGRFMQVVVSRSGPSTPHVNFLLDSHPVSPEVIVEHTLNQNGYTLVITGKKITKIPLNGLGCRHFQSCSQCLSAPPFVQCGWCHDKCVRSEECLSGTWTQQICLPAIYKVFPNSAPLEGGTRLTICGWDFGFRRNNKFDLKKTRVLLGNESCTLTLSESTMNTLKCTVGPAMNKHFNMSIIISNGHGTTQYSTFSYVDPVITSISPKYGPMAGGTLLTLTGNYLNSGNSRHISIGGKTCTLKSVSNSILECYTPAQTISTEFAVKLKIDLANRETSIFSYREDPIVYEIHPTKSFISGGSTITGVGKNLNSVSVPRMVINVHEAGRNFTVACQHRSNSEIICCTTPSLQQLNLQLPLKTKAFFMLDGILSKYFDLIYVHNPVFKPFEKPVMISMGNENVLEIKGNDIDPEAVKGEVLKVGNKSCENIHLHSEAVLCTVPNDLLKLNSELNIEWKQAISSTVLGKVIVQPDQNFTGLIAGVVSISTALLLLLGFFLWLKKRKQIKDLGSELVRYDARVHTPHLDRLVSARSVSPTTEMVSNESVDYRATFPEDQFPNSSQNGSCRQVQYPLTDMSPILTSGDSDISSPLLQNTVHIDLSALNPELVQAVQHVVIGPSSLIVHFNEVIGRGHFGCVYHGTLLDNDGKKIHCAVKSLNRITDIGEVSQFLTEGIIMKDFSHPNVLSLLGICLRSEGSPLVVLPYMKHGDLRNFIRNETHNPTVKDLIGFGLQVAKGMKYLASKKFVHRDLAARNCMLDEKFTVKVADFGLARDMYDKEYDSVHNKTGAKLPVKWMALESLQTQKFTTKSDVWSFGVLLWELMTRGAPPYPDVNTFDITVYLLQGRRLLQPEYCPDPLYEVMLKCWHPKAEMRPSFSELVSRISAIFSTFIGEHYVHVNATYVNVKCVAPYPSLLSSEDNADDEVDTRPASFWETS

BaF3 [4] = assay: cells; conditions: Mus musculus, BaF3, 72 h; remark: listed apart in the source
[5] = Clearance in male Beagle dog at 1 mg/kg, iv; assay type: ADME, organism-based, Canis lupus familiaris; conditions: in vivo
BaF3 [6] = assay: cells; conditions: Mus musculus, BaF3, 72 h; remark: listed apart in the source
[7] = AUCfree in rat measured for 28 days; assay type: ADME; conditions: in vivo, 672 h, time 28 day
[8] = Kinetic solubility of compound at pH 4.5; assay type: physicochemical; conditions: buffer, read-out: Kinetic_solubility
Mus musculus [9] = assay: In vivo inhibition of MET phosphorylation in human LU2503 cells xenografted in athymic BALB/c nude mouse at 20 to 60 mg/kg, po measured after 12 hrs post-dose; assay type: functional, organism-based; conditions: dose 20-60 mg/kg
[10] = Antitumor activity against human LU2503 cells xenografted in athymic BALB/c nude mouse at 6 mg/kg, po bid treated for 14 days relative to control; assay type: functional; conditions: LU2503, 336 h, time 14 day, read-out: TGI
EBC-1 [11] = assay: Antitumor activity against human EBC-1 cells xenografted in athymic BALB/c nude mouse at 2 mg/kg, po bid treated for 21 days relative to control; assay type: functional; conditions: EBC-1, 504 h, time 21 day, read-out: TGI
[12] = AUClast in Balb/c mouse at 10 mg/kg, po; assay type: ADME, organism-based; conditions: in vivo
[13] = biological target: Sodium-dependent serotonin transporter (Homo sapiens) (UniProt P31645); assay: Inhibition of SERT (unknown origin) at 10 uM by CEREP analysis relative to control
Sodium-dependent serotonin transporter (Homo sapiens), sequence (P31645 whole entry, looked up): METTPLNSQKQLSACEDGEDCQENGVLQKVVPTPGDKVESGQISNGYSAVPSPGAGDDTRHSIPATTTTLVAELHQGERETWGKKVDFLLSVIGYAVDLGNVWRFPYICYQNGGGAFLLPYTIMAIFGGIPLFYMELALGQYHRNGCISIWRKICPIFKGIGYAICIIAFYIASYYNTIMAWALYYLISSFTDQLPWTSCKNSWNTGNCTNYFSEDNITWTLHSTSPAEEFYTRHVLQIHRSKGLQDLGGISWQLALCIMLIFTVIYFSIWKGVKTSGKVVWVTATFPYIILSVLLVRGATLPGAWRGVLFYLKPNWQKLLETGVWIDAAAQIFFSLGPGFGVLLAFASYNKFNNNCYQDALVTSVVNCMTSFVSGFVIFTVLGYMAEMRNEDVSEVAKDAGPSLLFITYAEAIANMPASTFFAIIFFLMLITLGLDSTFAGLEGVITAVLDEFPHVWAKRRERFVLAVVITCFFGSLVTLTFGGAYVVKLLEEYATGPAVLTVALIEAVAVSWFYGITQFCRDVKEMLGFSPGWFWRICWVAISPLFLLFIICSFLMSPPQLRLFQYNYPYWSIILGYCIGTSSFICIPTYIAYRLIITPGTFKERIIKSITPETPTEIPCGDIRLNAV

[14] = AUCfree in dog measured for 28 days; assay type: ADME, Canis lupus familiaris; conditions: in vivo, 672 h, time 28 day
[15] = Half life in male Beagle dog at 1 mg/kg, iv; assay type: ADME, organism-based, Canis lupus familiaris; conditions: in vivo
BaF3 [16] = assay: cells; conditions: Mus musculus, BaF3, 72 h; remark: listed apart in the source
[17] = Oral bioavailability in male Sprague-Dawley rat at 10 mg/kg; assay type: ADME, organism-based; conditions: in vivo
cells = conditions: Mus musculus, BaF3/TRP-Met, 72 h
EBC-1 [18] = assay: Antitumor activity against human EBC-1 cells xenografted in athymic BALB/c nude mouse at 60 mg/kg, po bid treated for 21 days relative to control; assay type: functional; conditions: EBC-1, 504 h, time 21 day, read-out: TGI
BaF3 [19] = assay: Antitumor activity against mouse BaF3 cells harboring TPR-D1228N mutant cells allografted in athymic BALB/c nude mouse at 60 mg/kg, po bid treated for 10 days relative to control; assay type: functional; conditions: BaF3, 240 h, time 10 day, read-out: TGI
[20] = biological target: cGMP-inhibited 3',5'-cyclic phosphodiesterase 3A (Homo sapiens) (UniProt Q14432); assay: Inhibition of PDE3A (unknown origin) at 10 uM by CEREP analysis relative to control
cGMP-inhibited 3',5'-cyclic phosphodiesterase 3A (Homo sapiens), sequence (Q14432 whole entry): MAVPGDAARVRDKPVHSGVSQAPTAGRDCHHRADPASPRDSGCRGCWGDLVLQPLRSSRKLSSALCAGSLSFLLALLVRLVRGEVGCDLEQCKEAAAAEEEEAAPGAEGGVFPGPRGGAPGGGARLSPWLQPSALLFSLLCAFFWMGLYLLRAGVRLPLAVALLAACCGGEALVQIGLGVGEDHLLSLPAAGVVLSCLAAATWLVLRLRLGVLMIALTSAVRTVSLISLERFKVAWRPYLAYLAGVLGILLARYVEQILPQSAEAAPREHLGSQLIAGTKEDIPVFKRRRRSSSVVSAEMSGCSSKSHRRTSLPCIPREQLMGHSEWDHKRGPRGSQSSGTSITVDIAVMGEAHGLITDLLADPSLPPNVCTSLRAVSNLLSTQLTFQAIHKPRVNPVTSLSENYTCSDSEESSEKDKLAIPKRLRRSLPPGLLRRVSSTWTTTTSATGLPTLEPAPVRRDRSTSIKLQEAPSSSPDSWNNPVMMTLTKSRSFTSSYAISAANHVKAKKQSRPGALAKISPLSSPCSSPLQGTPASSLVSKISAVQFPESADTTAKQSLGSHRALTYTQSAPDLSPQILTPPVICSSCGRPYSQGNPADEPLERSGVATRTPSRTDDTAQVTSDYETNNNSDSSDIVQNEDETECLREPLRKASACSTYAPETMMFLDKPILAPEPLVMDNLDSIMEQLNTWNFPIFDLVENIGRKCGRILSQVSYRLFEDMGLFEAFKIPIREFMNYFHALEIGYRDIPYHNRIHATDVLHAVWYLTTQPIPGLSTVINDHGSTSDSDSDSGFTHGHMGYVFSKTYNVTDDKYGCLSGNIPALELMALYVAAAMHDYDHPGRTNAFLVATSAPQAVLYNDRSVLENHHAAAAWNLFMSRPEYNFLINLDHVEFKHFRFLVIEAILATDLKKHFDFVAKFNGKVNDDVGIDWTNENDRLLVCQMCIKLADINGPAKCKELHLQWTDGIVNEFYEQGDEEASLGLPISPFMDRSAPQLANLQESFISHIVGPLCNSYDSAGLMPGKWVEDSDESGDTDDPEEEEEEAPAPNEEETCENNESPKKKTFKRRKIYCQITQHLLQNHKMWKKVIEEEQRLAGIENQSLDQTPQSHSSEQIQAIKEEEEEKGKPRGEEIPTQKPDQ

[21] = biological target: Hepatocyte growth factor receptor (Homo sapiens, UniProt P08581, D1228N); assay: Inhibition of N-terminal GST-tagged recombinant human c-MET D1228N mutant (956 to end residues) extracted from baculovirus infected Sf9 cells using 5-FAM-KKKKEEIYFFF-CONH2 as substrate preincubated for 30 mins followed by ATP addition measured after 60 mins by fluorescence-based microfluidic mobility shift assay
BaF3 [22] = assay: cells; conditions: Mus musculus, BaF3, 72 h; remark: listed apart in the source
[23] = biological target: 3',5'-cyclic-AMP phosphodiesterase 4D (Homo sapiens) (UniProt Q08499); assay: Inhibition of PDE4D2 (unknown origin) at 10 uM by CEREP analysis relative to control
3',5'-cyclic-AMP phosphodiesterase 4D (Homo sapiens), sequence (Q08499 whole entry): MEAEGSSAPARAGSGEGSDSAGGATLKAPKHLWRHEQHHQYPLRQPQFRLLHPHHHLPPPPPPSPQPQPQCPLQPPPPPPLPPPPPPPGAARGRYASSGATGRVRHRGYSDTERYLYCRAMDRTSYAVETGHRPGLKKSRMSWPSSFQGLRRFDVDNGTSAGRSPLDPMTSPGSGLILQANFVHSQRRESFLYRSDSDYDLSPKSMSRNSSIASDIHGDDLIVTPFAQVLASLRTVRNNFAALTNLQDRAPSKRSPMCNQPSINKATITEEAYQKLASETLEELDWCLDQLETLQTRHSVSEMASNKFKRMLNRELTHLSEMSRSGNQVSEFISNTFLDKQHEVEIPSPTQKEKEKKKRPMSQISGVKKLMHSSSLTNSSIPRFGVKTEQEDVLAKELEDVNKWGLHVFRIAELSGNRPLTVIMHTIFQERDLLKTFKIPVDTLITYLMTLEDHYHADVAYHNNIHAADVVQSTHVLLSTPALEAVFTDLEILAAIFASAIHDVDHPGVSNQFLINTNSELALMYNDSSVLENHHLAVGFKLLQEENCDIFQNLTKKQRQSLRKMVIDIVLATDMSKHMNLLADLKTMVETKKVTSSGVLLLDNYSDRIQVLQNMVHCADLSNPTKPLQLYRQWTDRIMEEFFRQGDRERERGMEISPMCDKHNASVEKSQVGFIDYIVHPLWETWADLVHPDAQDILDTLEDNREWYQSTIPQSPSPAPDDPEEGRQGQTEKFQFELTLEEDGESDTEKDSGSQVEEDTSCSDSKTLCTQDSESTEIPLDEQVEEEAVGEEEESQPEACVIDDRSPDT

Mus musculus [24] = assay: In vivo inhibition of MET phosphorylation in human EBC-1 cells xenografted in athymic BALB/c nude mouse administered orally measured after 1 hr post-dose; assay type: functional, organism-based; conditions: dose 2-60 mg/kg, route po
BaF3 [25] = assay: cells; conditions: Mus musculus, BaF3, 72 h; remark: listed apart in the source
[26] = Kinetic solubility of compound at pH 2; assay type: physicochemical; conditions: buffer, read-out: Kinetic_solubility
[27] = Toxicity in dog assessed as drug tolerance measured for 28 days; set-up: species or system Canis lupus familiaris; conditions: in vivo, 672 h, time 28 day
BaF3 [28] = assay: Antitumor activity against mouse BaF3 cells harboring TPR-D1228N mutant cells allografted in athymic BALB/c nude mouse at 6 mg/kg, po bid treated for 10 days relative to control; assay type: functional; conditions: BaF3, 240 h, time 10 day, read-out: TGI
[29] = Antitumor activity against human LU2503 cells xenografted in athymic BALB/c nude mouse at 20 mg/kg, po bid treated for 14 days relative to control; assay type: functional; conditions: LU2503, 336 h, time 14 day, read-out: TGI
[30] = Toxicity in athymic BALB/c nude mouse xenografted with human EBC-1 cells assessed as body weight loss at 2 to 60 mg/kg, po bid treated for 10 to 21 days; assay type: organism-based; conditions: in vivo, dose lower 2 mg/kg, time lower 10 day, dose upper 60 mg/kg, time upper 21 day
[31] = Antitumor activity against human LU2503 cells xenografted in athymic BALB/c nude mouse at 60 mg/kg, po bid treated for 14 days relative to control; assay type: functional; conditions: LU2503, 336 h, time 14 day, read-out: TGI
[32] = Oral bioavailability in Balb/c mouse at 10 mg/kg; assay type: ADME, organism-based; conditions: in vivo
BaF3 [33] = assay: cells; conditions: Mus musculus, BaF3, 72 h; remark: listed apart in the source
BaF3 [34] = assay: cells; conditions: Mus musculus, BaF3, 72 h; remark: listed apart in the source
[35] = Clearance in female Balb/c mouse at 1 mg/kg, iv; assay type: ADME, organism-based; conditions: in vivo
BaF3 [36] = assay: cells; conditions: Mus musculus, BaF3, 72 h; remark: listed apart in the source
[37] = Toxicity in athymic BALB/c nude mouse xenografted with human LU2503 cells assessed as body weight loss at 2 to 60 mg/kg, po bid treated for 10 to 21 days; assay type: organism-based; conditions: in vivo, dose lower 2 mg/kg, time lower 10 day, dose upper 60 mg/kg, time upper 21 day
Homo sapiens [38] = organism: Homo sapiens; assay: Inhibition of c-MET Y1230 mutant (unknown origin) at 100 nM in presence of ATP by HotSpot Kinome Selectivity analysis
[39] = Toxicity in athymic BALB/c nude mouse allografted with mouse BaF3 cells harboring TPR-D1228N mutant assessed as body weight loss at 2 to 60 mg/kg, po bid treated for 10 to 21 days; assay type: organism-based; conditions: in vivo, dose lower 2 mg/kg, time lower 10 day, dose upper 60 mg/kg, time upper 21 day
L-type calcium channel = L-type calcium channel (Homo sapiens, UniProt O60840+Q01668+Q13698+Q13936); assay: Inhibition of Calcium channel L-type (unknown origin) at 10 uM by CEREP analysis relative to control; assay type: protein assay
EBC-1 [40] = assay: Antitumor activity against human EBC-1 cells xenografted in athymic BALB/c nude mouse at 6 mg/kg, po bid treated for 21 days relative to control; assay type: functional; conditions: EBC-1, 504 h, time 21 day, read-out: TGI
[41] = Half life in female Balb/c mouse at 1 mg/kg, iv; assay type: ADME, organism-based; conditions: in vivo
Homo sapiens [42] = organism: Homo sapiens; assay: Inhibition of c-MET D1228 mutant (unknown origin) at 100 nM in presence of ATP by HotSpot Kinome Selectivity analysis
[43] = Half life in male Sprague-Dawley rat at 3 mg/kg, iv; assay type: ADME, organism-based; conditions: in vivo
BaF3 [44] = assay: cells; conditions: Mus musculus, BaF3, 72 h; remark: listed apart in the source

For COc1cc2nccc(Oc3c(F)cc(NC(=O)c4cnccc4OC)cc3F)c2cc1O[C@@H](C)CO, the inhibition at 10 µM (hERG) was 18%, the EC50 (BaF3 [1]) was 2.5 nM and the EC50 (BaF3 [2]) was 11 nM and 5.1 nM. For the same molecule, the inhibition [3] was 85%, the EC50 (BaF3 [4]) was 8.6 nM and the clearance [5] was 3.5 mL/min/kg. The EC50 (BaF3 [6]) was 9.1 nM, the fAUC [7] was 5100 ng·h/mL and the solubility kinetic [8] was 145 µM (≈ 74.2 µg/mL). For the same molecule, the inhibition (Mus musculus [9]) was “Active”, the inhibition in vivo at 6 mg/kg [10] was 77% and the inhibition in vivo at 2 mg/kg (EBC-1 [11]) was 25%. It also gave an AUC(0-t) [12] of 13500 ng·h/mL, an inhibition [13] of 1% and a fAUC [14] of 5100 ng·h/mL. It also gave a half-life [15] of 6.3 h, an EC50 (BaF3 [16]) of 13 nM and a bioavailability [17] of 100%. For the same molecule, the EC50 (cells) was 11 nM, the inhibition in vivo at 60 mg/kg (EBC-1 [18]) was 110% and the inhibition in vivo at 60 mg/kg (BaF3 [19]) was 128%. It also gave an inhibition [20] of 16%, an IC50 [21] of 0.2 nM and an EC50 (BaF3 [22]) of 9.1 nM. For the same molecule, the inhibition [23] was 65%, the inhibition (Mus musculus [24]) was “Dose-dependent-effect” and the EC50 (BaF3 [25]) was 19 nM. The solubility kinetic [26] was 288 µM (≈ 147 µg/mL), the Activity [27] was “Non-toxic” and the inhibition in vivo at 6 mg/kg (BaF3 [28]) was 44%. The inhibition in vivo at 20 mg/kg [29] was 110%, the Activity [30] was “Non-toxic” and the inhibition in vivo at 60 mg/kg [31] was 113%. The bioavailability [32] was 100%, the EC50 (BaF3 [33]) was 7.7 nM and the EC50 (BaF3 [34]) was 18 nM. The clearance [35] was 14.3 mL/min/kg, the EC50 (BaF3 [36]) was 3.2 nM and the Activity [37] was “Non-toxic”. For the same molecule, the inhibition (Homo sapiens [38]) was 0%, the Activity [39] was “Non-toxic” and the inhibition at 10 µM (L-type calcium channel) was -4%. It also gave an inhibition in vivo at 6 mg/kg (EBC-1 [40]) of 52%, a half-life [41] of 1.8 h and an inhibition (Homo sapiens [42]) of 0%. It also gave a half-life [43] of 4.9 h and an EC50 (BaF3 [44]) of 538 nM.
